Assay results: ChEMBL document CHEMBL1152382, “Synthesis of novel quinoxaline derivatives and its cytotoxic activities” (Bioorg Med Chem Lett, 2009)

Test: Cytotoxicity against human HeLaS3 cells after 48 hrs by MTT assay
Format: functional, cell-based
Settings: HeLa S3, 48 h

`O=C1Nc2ccccc2NC12CCCCC2` and `CC1(C)Nc2ccccc2NC1=O` cannot be ordered by IC50: greater than 30 µM for the first, greater than 30 µM for the second.

First: O=C1Nc2cc([N+](=O)[O-])ccc2N2CCCCC12 (stereo not given)
Second: O=C1Nc2ccc(Cl)cc2N2CCCCC12 (stereo not given)
The IC50 of the first is higher: greater than 30 µM for the first, 4.96 µM for the second.

Going from `N#Cc1ccc2c(c1)N1CCCCC1C(=O)N2` (stereo not given) to `Cc1ccc2c(c1)N1CCCCC1C(=O)N2` (stereo not given), the IC50 rises from 7.6 µM to 18.1 µM (2.4-fold).

`Cc1cnc2c(c1)N1CCCCC1C(=O)N2` (stereo not given) and `O=C1Nc2cccnc2N2CCCCC12` (stereo not given) cannot be ordered by IC50: greater than 30 µM for the first, greater than 30 µM for the second.

First: CC(C)(C)C1Nc2ccccc2NC1=O (stereo not given)
Second: CC(C)C1Nc2ccccc2NC1=O (stereo not given)
The IC50 of the first is higher: greater than 30 µM for the first, 4.85 µM for the second.

`O=C1Nc2ccccc2NC1Cc1ccccc1` (stereo not given) and `O=C1Nc2ccccc2N2Cc3ccccc3CC12` (stereo not given) cannot be ordered by IC50: greater than 30 µM for the first, greater than 30 µM for the second.

`O=C1Nc2cc(OC(F)(F)F)ccc2N2CCCCC12` (stereo not given) and `O=C1Nc2ccccc2N2CCCC12` (stereo not given) cannot be ordered by IC50: greater than 30 µM for the first, greater than 30 µM for the second.

Work on `CCC(C)C1Nc2cc(Cl)ccc2NC1=O` (stereo not given) yielded an IC50 of 17.2 µM.
